From US8912121B2, “Herbicidal compositions comprising 4-amino-3-chloro-5-fluoro-6-(4-chloro-2-fluoro-3-methoxyphenyl)pyridine-2-carboxylic acid or a derivative thereof and certain PS II inhibitors” (Dow Agrosciences LLC, priority 2012, dated 2014)
“And” between values parts separate entries of the source, which are not always exact repeats. Equal values may be shown once.

Test system: COMBE (Commelina benghalensis, Benghal dayflower)
Assay: Postemergence foliar-applied mixtures, direct seeded rice, greenhouse
Format: in vivo, Commelina benghalensis L.
Details: 20 DAA
Description: Seeds or nutlets of the desired test plant species were planted in a soil matrix prepared by mixing a loam or sandy loam soil (e.g., 28.6 percent silt, 18.8 percent clay, and 52.6 percent sand, with a pH of about 5.8 and an organic matter content of about 1.8 percent) and calcareous grit in an 80 to 20 ratio. The soil matrix was contained in plastic pots with a volume of 1 quart and a surface area of 83.6 square centimeters (cm^2). When required to ensure good germination and healthy plants, a fungicide treatment and/or other chemical or physical treatment was applied. The plants were grown for 8-22 days in a greenhouse with an approximate 14 h photoperiod which was maintained at about 29° C. during the day and 26° C. during the night. Nutrients (Peters Excel® 15-5-15 5-Ca 2-Mg and iron chelate) were applied in the irrigation solution as needed and water was added on a regular basis. Supplemental lighting was provided with overhead metal halide 1000-Watt lamps as necessary. The plants were employed for testing when they reached the first through fourth true leaf stage. […]
Treatment requirements were calculated based upon the rates being tested, the concentration of active ingredient or acid equivalent in the formulation, and a 12 mL application volume at a rate of 187 L/ha.
For treatments comprised of formulated compounds, measured amounts of compounds were placed individually in 25 mL glass vials and diluted in a volume of 1.25% (v/v) Agri-Dex® crop oil concentrated to obtain 12× stock solutions. […]
For treatments comprised of formulated and technical compounds, weighed amounts of the technical materials were placed individually in 25 mL glass vials and dissolved in a volume of 97:3 v/v acetone/DMSO to obtain 12× stock solutions, and measured amounts of the formulated compounds were placed individually in 25 mL glass vials and diluted in a volume of 1.5% (v/v) crop oil concentrate or water to obtain 12× stock solutions. […]

Structure (SMILES)	Visual Weed Control (%) Obs (6 g ae/ha)	Visual Weed Control (%) Obs (3360 g ai/ha)
COc1c(Cl)ccc(-c2nc(C(=O)OCc3ccccc3)c(Cl)c(N)c2F)c1F [Compound A Benzyl Ester, benzyl ester of 4-amino-3-chloro-5-fluoro-6-(4-chloro-2-fluoro-3-methoxy-phenyl)pyridine-2-carboxylic acid]	80% and 70%	–
CCC(=O)Nc1ccc(Cl)c(Cl)c1 [Propanil, N-(3,4-dichlorophenyl)propanamide, reference compound]	–	10%
